Legend:
Assay in all cases: HMF sulfoconjugation assay
Type in all cases: biochemical
[1] = biological target: T1, hSULT1A2 (Homo sapiens, UniProt P50226)
T1 construct: made in house; host or cells: Salmonella typhimurium TA1538 (cytosolic fraction, not purified)
In short: (§1)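 Read-out: SMF by negative-ion UPLC-MS/MS (m/z 204.9 → 96.0 and → 81.0), external calibration. Reactions used bacterial cytosol with one expressed SULT, HMF at several concentrations, 50 µM PAPS, 37 °C, 30 min, under linear protein and time conditions.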

[2] = biological target: T2, mSult1a1 (Mus musculus, UniProt P52840)
T2 construct: made in house; host or cells: Salmonella typhimurium TA1538 (cytosolic fraction, enzyme not purified)
In short: as §1

[3] = biological target: T3, hSULT2B1a (Homo sapiens, UniProt O00204)
T3 construct: made in house; host or cells: Salmonella typhimurium TA1538 (cytosolic fraction, not purified)
T3 sequence (O00204 1-350 isoform O00204-2): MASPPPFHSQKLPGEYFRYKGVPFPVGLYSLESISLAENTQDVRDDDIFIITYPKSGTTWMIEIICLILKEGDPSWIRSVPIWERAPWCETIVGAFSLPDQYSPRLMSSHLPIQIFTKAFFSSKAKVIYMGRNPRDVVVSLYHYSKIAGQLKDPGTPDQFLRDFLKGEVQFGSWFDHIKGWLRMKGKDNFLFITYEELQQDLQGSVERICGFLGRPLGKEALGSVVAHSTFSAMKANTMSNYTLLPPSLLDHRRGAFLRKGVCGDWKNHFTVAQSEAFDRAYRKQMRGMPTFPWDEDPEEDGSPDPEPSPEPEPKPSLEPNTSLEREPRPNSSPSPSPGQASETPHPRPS
In short: as §1

[4] = biological target: T4, mSult1e1 (Mus musculus, UniProt P49891)
T4 construct: made in house; host or cells: Salmonella typhimurium TA1538 (cytosolic fraction, enzyme not purified)
T4 sequence (P49891 1-295): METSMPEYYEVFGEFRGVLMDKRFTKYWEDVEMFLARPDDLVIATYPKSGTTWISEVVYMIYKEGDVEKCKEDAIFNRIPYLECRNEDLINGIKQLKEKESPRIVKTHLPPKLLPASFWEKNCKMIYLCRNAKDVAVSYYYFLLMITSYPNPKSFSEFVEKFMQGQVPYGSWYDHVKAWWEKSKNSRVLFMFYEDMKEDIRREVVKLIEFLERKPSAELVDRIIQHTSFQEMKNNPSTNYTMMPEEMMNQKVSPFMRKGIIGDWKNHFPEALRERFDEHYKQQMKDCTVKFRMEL
In short: as §1

[5] = biological target: T5, mSult1c2 (Mus musculus, UniProt Q9D939)
T5 construct: made in house; host or cells: Salmonella typhimurium TA1538 (cytosolic fraction, enzyme not purified)
In short: as §1

[6] = HMF sulfoconjugation, Michaelis-Menten fit

T2 sequence (P52840 whole entry): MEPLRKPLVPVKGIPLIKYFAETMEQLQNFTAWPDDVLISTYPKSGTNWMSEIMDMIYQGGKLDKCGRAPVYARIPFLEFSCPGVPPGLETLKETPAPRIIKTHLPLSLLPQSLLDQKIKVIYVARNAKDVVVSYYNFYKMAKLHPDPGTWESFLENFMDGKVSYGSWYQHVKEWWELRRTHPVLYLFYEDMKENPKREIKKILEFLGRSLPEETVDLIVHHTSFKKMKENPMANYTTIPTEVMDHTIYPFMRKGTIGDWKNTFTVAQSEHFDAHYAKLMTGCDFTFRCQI
T1 sequence (P50226 whole entry): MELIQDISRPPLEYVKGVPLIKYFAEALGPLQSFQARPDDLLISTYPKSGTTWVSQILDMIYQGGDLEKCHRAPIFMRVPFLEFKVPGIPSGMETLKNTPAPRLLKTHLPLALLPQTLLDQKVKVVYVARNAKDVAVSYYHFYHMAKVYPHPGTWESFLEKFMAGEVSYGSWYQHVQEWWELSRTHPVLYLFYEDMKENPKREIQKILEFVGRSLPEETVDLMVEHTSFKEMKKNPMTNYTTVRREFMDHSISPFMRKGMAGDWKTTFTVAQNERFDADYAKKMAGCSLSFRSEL
T5 sequence (Q9D939 whole entry): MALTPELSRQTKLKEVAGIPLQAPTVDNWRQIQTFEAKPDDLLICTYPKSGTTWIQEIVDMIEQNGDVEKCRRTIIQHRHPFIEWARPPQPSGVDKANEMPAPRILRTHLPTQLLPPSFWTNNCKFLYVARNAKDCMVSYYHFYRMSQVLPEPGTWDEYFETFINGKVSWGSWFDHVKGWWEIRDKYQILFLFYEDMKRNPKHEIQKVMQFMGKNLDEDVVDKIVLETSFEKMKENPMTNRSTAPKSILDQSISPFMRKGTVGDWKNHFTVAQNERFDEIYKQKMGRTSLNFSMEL

O=Cc1ccc(CO)o1 [HMF, 5-Hydroxymethylfurfural]
Rate of sulfoconjugation ([1]; 0.1 mM HMF): <0.5 pmol/mg/min | Rate of sulfoconjugation ([1]; 1 mM HMF): 15.2 ± 4.5 pmol/mg/min | Rate of sulfoconjugation ([1]; 10 mM HMF): 130 ± 53 pmol/mg/min | Rate of sulfoconjugation ([1]; 100 mM HMF): 628 ± 233 pmol/mg/min | K M [1, 6]: 56.5 ± 5.4 mM | Rate of sulfoconjugation ([2]; 0.1 mM HMF): 76.6 ± 14.4 pmol/mg/min | Rate of sulfoconjugation ([2]; 1 mM HMF): 722 ± 93 pmol/mg/min | Rate of sulfoconjugation ([2]; 10 mM HMF): 2,010 ± 210 pmol/mg/min | Rate of sulfoconjugation ([2]; 100 mM HMF): 1,970 ± 70 pmol/mg/min | K M [2, 6]: 2.0 ± 0.3 mM | Rate of sulfoconjugation ([3]; 0.1 mM HMF): <0.5 pmol/mg/min | Rate of sulfoconjugation ([3]; 1 mM HMF): <0.5 pmol/mg/min | Rate of sulfoconjugation ([3]; 10 mM HMF): <0.5 pmol/mg/min | Rate of sulfoconjugation ([3]; 100 mM HMF): <0.5 pmol/mg/min | Rate of sulfoconjugation ([4]; 0.1 mM HMF): 3.7 ± 0.3 pmol/mg/min | Rate of sulfoconjugation ([4]; 1 mM HMF): 35.5 ± 2.6 pmol/mg/min | Rate of sulfoconjugation ([4]; 10 mM HMF): 226 ± 9 pmol/mg/min | Rate of sulfoconjugation ([4]; 100 mM HMF): 534 ± 52 pmol/mg/min | Rate of sulfoconjugation ([5]; 0.1 mM HMF): <0.5 pmol/mg/min | Rate of sulfoconjugation ([5]; 1 mM HMF): 2.0 ± 0.2 pmol/mg/min | Rate of sulfoconjugation ([5]; 10 mM HMF): 16.2 ± 1.1 pmol/mg/min | Rate of sulfoconjugation ([5]; 100 mM HMF): 92.4 ± 6.7 pmol/mg/min

From article PMC4710668, “Bioactivation of food genotoxicants 5-hydroxymethylfurfural and furfuryl alcohol by sulfotransferases from human, mouse and rat: a comparative study” (Archives of Toxicology, 2014)
